Assay results published in patent US12605446B2, “PSMA-targeted immunotherapies for cancers” (THE METHODIST HOSPITAL, priority 2020, dated 2026).
Substitutions are numbered along the chain they refer to.

What was measured:
[1] = tested on: PSMA expression in LNCaP cells; test: PSMA expression after antiandrogen or androgen treatment, LNCaP; assay type: cell-based
[2] = tested on: PSMA expression in VCaP cells; test: PSMA expression after antiandrogen or androgen treatment, VCaP; assay type: cell-based
[3] = tested on: PSMA-positive LNCaP cells; test: Flow cytometric binding of anti-PSMA mAbs to prostate cancer cells; details: mixed PC3 and LNCaP cells, 20 μg antibody, FITC anti-mouse IgG secondary antibody
Description: PC3 cells and […] cells are mixed and incubated with 20 μg of J591, our home-made mAb #1352, or […] as a negative control. Next, the cells were incubated with FITC anti-mouse IgG secondary antibody (Biolegend, cat #406001), followed by flow cytometric analysis.
(A2). Development of anti-PSMA mAbs and construction of PSMA-CARs. The process of PSMA-CAR T cell therapy development is shown in the flowchart (FIG. 13A). PSMA extracellular domain was produced in baculovirus-insect cell expression system as reported. Purified recombinant PSMA protein was used to immunized BALB/c mice. Out of 38 ELISA-positive hybridomas, seven were confirmed by flow cytometry for their antibody-specific binding to PSMA-positive LNCaP and VCaP cells, but not to PSMA-negative PC3 cells.

[4] = tested on: PSMA-positive prostate cancer cell lines LNCaP and VCaP; test: Murine FCγRIII ADCC reporter bioassay; assay type: cell-based; details: in vitro ADCC assay

**Q.** Which “PSMA mRNA levels” value ([1]; 10 nM R1881) does the source give for C[C@]1(O)CC[C@H]2[C@@H]3CCC4=CC(=O)CCC4=C3C=C[C@@]21C [R1881] here?
**A.** reduced

**Q.** What about the “PSMA mRNA levels” value ([2]; 10 nM R1881) of the same molecule?
**A.** reduced

**Q.** Which “PSMA mRNA levels” value ([1]; 10 μM enzalutamide, 48 hours) does the source give for CNC(=O)c1ccc(N2C(=S)N(c3ccc(C#N)c(C(F)(F)F)c3)C(=O)C2(C)C)cc1F [enzalutamide] here?
**A.** increased

**Q.** And the PSMA protein levels ([1]; Enzalutamide, 72 hrs)?
**A.** increased

**Q.** What about the “PSMA mRNA levels” value ([2]; 10 μM enzalutamide, 48 hours) of the same molecule?
**A.** increased

**Q.** What about the PSMA protein levels ([2]; Enzalutamide, 72 hrs) of the same molecule?
**A.** increased

B1: #1352: anti-PSMA mouse monoclonal antibody of hybridoma #1352; VH SEQ ID NO: 24, VL SEQ ID NO: 26 (antibody, V domains shown)
VH: VKLQQSGPELEKPGASVKISCKASGYSFTGYNVNWVKQSNGKSLEWIGNIDPYHGGTTYNQKFEAKATLTVDKSSSTAYMQLKSLTSEDSAVYYCARSSRFDYWGQGTTLTVSS
VL: DIVMTQSHKFMSTSVGDRVNITCKASQDVGTAVAWYQQKPGQSPKFLIYWASTRHTGVPDRFTGSGSGTDFTLTISNVQSEDLADYFCHQYTSYPFTFGSGTKLEMKR
**Q.** What does the source list for B1?
**A.** binding to LNCaP cells by flow cytometry [3]: detected as the FITC positive cells; induction of ADCC activity [4]: most potent

B2: #219: anti-PSMA mouse monoclonal antibody of hybridoma #219; VH SEQ ID NO: 12, VL SEQ ID NO: 14 (antibody, V domains shown)
VH: B1 VH with K2Q, I19M, K37R, S39N, Y53L, E64K, K73R, M80L, S84N
VL: B1 VL with F46L, Y91F, K103S
**Q.** How did the “binding to LNCaP cells by flow cytometry” value [3] turn out when B2 was run?
**A.** bind to LNCaP cells with high affinity

B3: #1207: anti-PSMA mouse monoclonal antibody of hybridoma #1207; VH SEQ ID NO: 28, VL SEQ ID NO: 30 (antibody, V domains shown)
VH: VKLQQSGPGLVKPSQSLSLTCAVTGYSITSDYAWNWIRKFPGNKLEWMGYISYSGRTTYNPSLESRISITRDTSKNQFFLQLNSVTTEDTATYYCARCYYGSSSRWYGMDYWGRGTSVAVSS
VL: IVLTQSPAIMSASPGVKVTMTCRASSSVDSSYLHWYQQKSGASPQVWIYSTSNLASGVPARFSGSGSGTSYSLTISSVEAEDAATYYCQQYSGYPLTFGGGTKLEIKR
**Q.** B3 was tested. Which “binding to LNCaP cells by flow cytometry” value [3] did it give?
**A.** bind to LNCaP cells with high affinity

B4: #1366: anti-PSMA mouse monoclonal antibody of hybridoma #1366; VH SEQ ID NO: 20, VL SEQ ID NO: 22 (antibody, V domains shown)
VH: VKLQESGPGLVAPSQSLSITCTVSGFSLTDYGVSWIRQPPGKGLEWLGVIWSDGNTYYNSPLKSRLSINKDNSKSQVFLKMNSLQTDDSAMYYCARHKVYTMDYWGQGTSVTVSS
VL: B3 VL with I1T, V16E, D29S, G41S, Q45K, V46L, S50R, V78L, G100A, I106L
**Q.** For B4, which “binding to LNCaP cells by flow cytometry” value [3] is on record?
**A.** bind to LNCaP cells with high affinity

B5: #1377: anti-PSMA mouse monoclonal antibody of hybridoma #1377; VH SEQ ID NO: 16, VL SEQ ID NO: 18 (antibody, V domains shown)
VH: VQLQQPGAALVRPGASVRLSCKASGYSFTYYWMNWVMQRPGQGLEWIGMIHPSDSETRLSQKFRDKATLTVDKSSSTVYMQLNSPTSDDSAVYYCARDGNFPYYALDYWGQGTSVTVSS
VL: DVVLTQAPLSLPVSLGDQASISCRSSQSLEYSNGNTYLHWYLQKPGQSPELLIYTVSNRFSGVPDRFSGSGSGTDFTLKIHRVEAEDLGVYFCSQSTHVPTFGGGTKLEIKR
**Q.** For B5, which “binding to LNCaP cells by flow cytometry” value [3] is on record?
**A.** bind to LNCaP cells with high affinity
